# Measured values from patent US7169592B2, “Producing optically active amino compounds” (Kaneka Corporation, priority 1997, dated 2007).
# Where “and” joins values, the source holds several entries; their conditions need not be identical. Identical values can stand only once. Like-named read-outs stand apart in the source and are kept apart here. Marks after values point to notes of the source that are not given here.
# Columns and labels:
# [1] = tested on: Arthrobacter species KNK168 strain; assay: Inducer added during culture; (R)-DMA formation by the separated cells; assay type: cell-based; conditions: substance added to medium as inducer; reaction 30° C., 20 hours, 1% 1-(3,4-dimethoxyphenyl)-2-propanone, 1% (RS)-1-methylpropylamine
# Method: When culturing the Arthrobacter species KNK168 strain by the method described in Example 1, (RS)-1-methylpropylamine, (RS)-1-methylbutylamine, (RS)-3-amino-2,2-dimethylbutane, (RS)-2-amino-1-butanol, or (RS)-1-phenylethylamine was added to the medium in place of (R)-1-(3,4-dimethoxyphenyl)-2-aminopropane ((R)-DMA). The cells were separated from the culture, and the reaction was carried out at 30° C. for 20 hours using the above cells in a reaction mixture containing 1% 1-(3,4-dimethoxyphenyl)-2-propanone and 1% (RS)-1-methylpropylamine.
# [2] = tested on: Arthrobacter species KNK168 strain; assay: Amino group donors in whole-cell transamination of 1-(3,4-dimethoxyphenyl)-2-propanone; assay type: cell-based; conditions: for (R)-DMA Formed: 1% amino group donor, 1% 1-(3,4-dimethoxyphenyl)-2-propanone, 0.1% Triton X-100, pH 8.5, 35° C., 20 hours; for Function as amino group donor (in words): whole cells
# Method: The cultured cells were harvested by centrifugation, and the harvested cells were suspended in a reaction mixture (pH 8.5) containing 1% 1-(3,4-dimethoxyphenyl)-2-propanone, 0.1% Triton X-100, and 1% an amino group donor shown in Table 5. The mixture was reacted at 35° C. for 20 hours.
# [3] = target: T1, ω-amino acid transaminase (Pseudomonas putida, UniProt P28269); conditions: purified enzyme, literature; pyruvic acid as amino group acceptor; cited from earlier work
# T1 sequence (P28269 1-449): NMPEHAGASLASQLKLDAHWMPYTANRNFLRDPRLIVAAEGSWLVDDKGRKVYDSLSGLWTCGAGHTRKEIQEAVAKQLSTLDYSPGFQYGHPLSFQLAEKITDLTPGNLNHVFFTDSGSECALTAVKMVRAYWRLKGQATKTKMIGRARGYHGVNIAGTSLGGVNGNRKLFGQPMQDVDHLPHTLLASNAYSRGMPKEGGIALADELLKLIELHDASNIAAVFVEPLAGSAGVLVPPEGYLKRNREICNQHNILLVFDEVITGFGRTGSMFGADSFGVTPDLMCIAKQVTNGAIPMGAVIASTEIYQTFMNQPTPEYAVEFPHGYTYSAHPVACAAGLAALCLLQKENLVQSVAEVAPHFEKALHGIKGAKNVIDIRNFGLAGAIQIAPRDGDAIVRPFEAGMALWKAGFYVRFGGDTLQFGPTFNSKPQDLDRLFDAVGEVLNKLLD
# [4] = tested on: Transaminase of Present Invention (purified enzyme); assay: Reactivity of purified transaminase to amino compounds (amino group donors) with pyruvic acid as acceptor; assay type: biochemical, Arthrobacter sp. KNK168; set-up: Substrate Specificity, relative activity: concentration or dose not given beside the values; conditions: for Substrate Specificity, relative activity: purified enzyme, pyruvic acid as amino group acceptor; for Relative Activity: amino compound 40 mM in substrate solution, pyruvic acid acceptor, pH 8.3, 30° C., 1 hour, (R)-1-phenylethylamine = 100
# Description: (§1) The differences with the ω-amino acid transaminase derived from Pseudomonas sp. F-1 (Agric. Biol. Chem., 42, 2363–2367 (1978), Agric. Biol. Chem., 43, 1043–1048 (1979), J. Biol. Chem., 258, 2260–2265 (1983)) which have been well studied among the ω-amino acid transaminases, and with the benzylamine transaminase of Okada et al. (Japanese Patent Laid-Open No. Hei 6-178685) are summarized and shown in Table 2. In a case of the transaminase reaction in the present invention, the data of the purified enzyme are used, and in cases of those by other two enzymes, the data of the purified enzymes which are disclosed in each of the literature publication and laid-open patent publication are used. Pyruvic acid is used as an amino group acceptor in all cases.
# Using the purified enzyme protein obtained in Example 9, reactivities to various amino compounds when using pyruvic acid as an amino acceptor were evaluated. A 150 μl solution of the purified enzyme protein solution diluted ten-folds was added to a 150 μl substrate solution [0.1 M potassium phosphate buffer (pH 8.3), 40 mM pyruvic acid, 0.1 mM pyridoxal phosphate, and 40 mM various amino compounds]. The components were reacted at 30° C. for 1 hour. The reaction tube was transferred into boiling water to stop the reaction, and thereafter, a part of the reaction mixture was diluted five-folds. Ten μl 0.1 M boric acid buffer (pH 8.0) and a 20 μl ethanol solution of 80 mM 4-fluoro-7-nitro-2,1,3-benzoxadiazole (NBD-F) were added to the 10 μl above-mentioned diluted reaction mixture. The resulting mixture was reacted at 60° C. for 1 minute, and thereafter, the resulting mixture was ice-cooled, and 460 μl 5 mM HCl was added thereto. This reaction mixture was analyzed by high-performance liquid chromatography using a fine pack C18-5 column (manufactured by Nippon Bunko) I and using 0.1 M potassium phosphate buffer (pH 6.5) and CH3CN (90:10) as an eluent to detect formation of NBD-Alanine with an excitation wavelength of 470 nm and a detection wave of […]. The results thereof are shown in Table 8 in terms of relative activity in the case of using […] as a substrate.
# [5] = tested on: transaminase (intracellular enzyme); assay: Activity of the transaminase (intracellular enzyme) on typical substrates of ω-aminotransferases; assay type: biochemical, Arthrobacter sp. KNK168
# [6] = tested on: benzylamine transaminase of Okada et al.; conditions: cited from earlier work; for Substrate Specificity, relative activity: purified enzyme, laid-open patent publication, pyruvic acid as amino group acceptor
# [7] = tested on: Transaminase of Present Invention (purified enzyme); assay: Influence of reaction inhibitors on purified transaminase; assay type: biochemical, Arthrobacter sp. KNK168; conditions: for Relative activity with inhibitor: inhibitor 1 mM, without addition = 100
# Description: as §1
# [8] = tested on: benzylamine transaminase of Okada et al.; conditions: without addition = 100, cited from earlier work
# [9] = target: T1, ω-amino acid transaminase; conditions: inhibitor 1 mM; without addition = 100; cited from earlier work
# [10] = tested on: Transaminase of Present Invention; assay: Usability as amino group donor, transaminase of present invention; assay type: biochemical, Arthrobacter
# Description: Further, the transaminase derived from Arthrobacter which can be used in the present invention is different from the above-mentioned enzyme derived from Brevibacterium in many other aspects.
# [11] = amino group acceptor 2-ketoglutaric acid, (R)-1-phenylethylamine/pyruvic acid = 100 (control)
compound,measurement,setting,value
CCCC(C)N (racemic) [(RS)-1-Methylbutylamine],(R)-DMA Formed,[1],13.0%
same,(R)-DMA Formed,[2],54.7% and 56.9%
same,Function as amino group donor (in words),[2],functioned as amino group donors
CCC(C)N (racemic) [(RS)-1-Methylpropylamine],(R)-DMA Formed,[1],22.3%
same,(R)-DMA Formed,[2],28.2%
same,Function as amino group donor (in words),[2],functioned as amino group donors
CC(N)c1ccccc1 (racemic) [(RS)-1-Phenylethylamine],(R)-DMA Formed,[1],8.0%
same,(R)-DMA Formed,[2],61.3%
same,Function as amino group donor (in words),[2],functioned as amino group donors
CCC(N)CO (racemic) [(RS)-2-Amino-1-butanol],(R)-DMA Formed,[1],12.9%
"CC(N)C(C)(C)C (racemic) [(RS)-3-Amino-2,2-dimethylbutane]",(R)-DMA Formed,[1],18.6%
NCCCC(=O)O [4-Aminobutyric acid],"Substrate Specificity, relative activity",[3],40%
same,Action of the transaminase on the substance (in words),[4],does not act on
same,"Substrate Specificity, relative activity",[4],0%
same,Relative Activity,[5]; [11],0%
"COc1ccc(C[C@@H](C)N)cc1OC [(R)-DMA, (R)-1-(3,4-dimethoxyphenyl)-2-aminopropane]",Relative Activity,[4],30%
same,(R)-DMA Formed,[1],0.9%
NCc1ccccc1 [Benzylamine],Action of benzylamine transaminase on the substance (in words),[6]; in the presence of pyruvic acid,strongly acts on
same,"Substrate Specificity, relative activity",[6],100%
same,"Substrate Specificity, relative activity",[3],45%
same,Relative Activity,[4],0.8%
same,"Substrate Specificity, relative activity",[4],0.8%
O=S(=O)([O-])[O-].[Cu+2] [CuSO4],Relative activity with inhibitor,[7],44%
same,Relative activity with inhibitor,[8]; inhibitor 0.5 mM,5%
CC(C)(S)[C@@H](N)C(=O)O [D-Penicillamine],Relative activity with inhibitor,[7],93%
same,Relative activity with inhibitor,[8]; inhibitor 1 mM,0%
NO [Hydroxylamine],Influence of reaction inhibitor on the transaminase (in words),[7],affected only a little
same,Relative activity with inhibitor,[7],17%
same,Relative activity with inhibitor,[8]; inhibitor 0.1 mM,30%
same,Relative activity with inhibitor,[9],0%
NNc1ccccc1 [Phenylhydrazine],Influence of reaction inhibitor on the transaminase (in words),[7],affected only a little
same,Relative activity with inhibitor,[7],82%
same,Relative activity with inhibitor,[8]; inhibitor 1 mM,27%
NCCCCN [Putrescine],"Substrate Specificity, relative activity",[6],0%
same,"Substrate Specificity, relative activity",[3],55%
same,Action of the transaminase on the substance (in words),[4],does not act on
same,"Substrate Specificity, relative activity",[4],0%
same,Relative Activity,[5]; [11],0%
Cl.N [ammonium chloride],Amino Group Donor (usable or not),[10],cannot be used as an amino group donor
N[C@@H](CC(=O)O)C(=O)O [aspartic acid],Amino Group Donor (usable or not),[10],cannot be used as an amino group donor
N[C@@H](CCC(=O)O)C(=O)O [glutamic acid],Amino Group Donor (usable or not),[10],cannot be used as an amino group donor
CCCCN [n-Butylamine],"Substrate Specificity, relative activity",[6],0%
same,"Substrate Specificity, relative activity",[3],60%
same,Action of the transaminase on the substance (in words),[4],does not act on
same,"Substrate Specificity, relative activity",[4],0%
O=C(O)c1cc[c]([Hg][Cl])cc1 [p-Chloromercuribenzoic acid],Relative activity with inhibitor,[7],53%
same,Relative activity with inhibitor,[8]; inhibitor 0.1 mM,9%
same,Relative activity with inhibitor,[9],100%
NCCC(=O)O [β-Alanine],"Substrate Specificity, relative activity",[6],0* %
same,"Substrate Specificity, relative activity",[3],100* %
same,Action of the transaminase on the substance (in words),[4],does not act on
same,"Substrate Specificity, relative activity",[4],0* %
same,Activity on the substance as amino group donor (in words),[5],does not act on
same,Relative Activity,"[5]; amino group acceptor pyruvic acid, (R)-1-phenylethylamine = 100 (control)",0%
NCCc1ccccc1 [β-Phenethylamine],"Substrate Specificity, relative activity",[6],9%
same,"Substrate Specificity, relative activity",[3],54%
same,"Substrate Specificity, relative activity",[4],0%
